# Experimental data from patent US5075335A, “Guanidinobenzoic ester derivative” (Eisai Co., Ltd., priority 1985, dated 1991).
# What was measured:
# Type in all cases: biochemical
# trypsin = experiment: Trypsin inhibition in vitro (hydrolysis of benzoyl-D,L-arginine-p-nitroanilide hydrochloride); conditions: 0.5 μg/ml of trypsin, 25° C, read-out: 50% Inhibitory concentration (IC50) Trypsin
# Experimental: (§1) The effects of typical compounds of the present invention in inhibiting trypsin, plasmin and thrombin in vitro were examined. The trypsin-inhibiting effect was represented in terms of a molar concentration of the compound which inhibits the activity of 0.5 μg/ml of trypsin to hydrolyze benzoyl-D,L-arginine-p-nitroanilide hydrochloride by 50% at 25° C. In the determination of the plasmin- and thrombin-inhibiting effects, 50% inhibitory concentrations were determined by using H-D-Val-Leu-L-Lys-p-nitroanilide dihydrochloride and H-D-Phe-L-pipecolyl-L-Arg-p-nitroanilide dihydrochloride, respectively, as the substrate.
# plasmin = plasmin (Homo sapiens, UniProt P00747); experiment: Plasmin inhibition in vitro (substrate H-D-Val-Leu-L-Lys-p-nitroanilide dihydrochloride); conditions: read-out: 50% Inhibitory concentration (IC50) Plasmin
# Experimental: as §1
# thrombin = thrombin (Homo sapiens, UniProt P00734); experiment: Thrombin inhibition in vitro (substrate H-D-Phe-L-pipecolyl-L-Arg-p-nitroanilide dihydrochloride); conditions: read-out: 50% Inhibitory concentration (IC50) Thrombin
# Experimental: as §1
# Sequence of plasmin (P00747 581-810 limits assumed, species assumed): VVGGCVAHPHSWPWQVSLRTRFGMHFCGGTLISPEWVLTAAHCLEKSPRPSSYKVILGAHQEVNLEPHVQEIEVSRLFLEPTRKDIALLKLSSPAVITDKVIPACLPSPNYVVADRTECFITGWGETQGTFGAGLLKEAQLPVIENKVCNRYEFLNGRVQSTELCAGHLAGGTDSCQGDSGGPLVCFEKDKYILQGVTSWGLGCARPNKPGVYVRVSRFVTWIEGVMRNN
# Sequence of plasmin (P00747 97-580 partner limits assumed, species assumed): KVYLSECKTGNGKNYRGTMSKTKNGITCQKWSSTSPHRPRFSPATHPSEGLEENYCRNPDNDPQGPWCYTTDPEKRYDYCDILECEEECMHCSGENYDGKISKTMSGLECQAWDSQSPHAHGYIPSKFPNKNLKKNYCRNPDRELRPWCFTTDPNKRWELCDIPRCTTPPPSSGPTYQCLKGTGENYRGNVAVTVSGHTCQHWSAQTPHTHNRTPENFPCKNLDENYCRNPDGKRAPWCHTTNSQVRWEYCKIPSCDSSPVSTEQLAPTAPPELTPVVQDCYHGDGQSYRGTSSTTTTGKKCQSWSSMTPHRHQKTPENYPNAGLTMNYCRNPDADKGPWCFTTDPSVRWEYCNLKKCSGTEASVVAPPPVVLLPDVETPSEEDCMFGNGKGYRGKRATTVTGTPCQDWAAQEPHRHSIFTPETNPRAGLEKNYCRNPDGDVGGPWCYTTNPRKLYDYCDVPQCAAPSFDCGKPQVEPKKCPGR
SMILES,IC50 (trypsin),IC50 (plasmin),IC50 (thrombin)
"N=C(N)Nc1ccc(C(=O)Oc2ccc(SCCN3C(=O)c4ccccc4C3=O)cc2)cc1 [H, 4-(2-phthalimidoethylthio)phenyl 4-guanidinobenzoate methanesulfonate]",30 nM,920 nM,110 nM
"N=C(N)Nc1ccc(C(=O)Oc2ccc(SCCCCN3C(=O)CCC3=O)cc2)cc1 [E, 4-(4-succinimidobutylthio)phenyl 4-guanidinobenzoate methanesulfonate]",22 nM,2300 nM,570 nM
"N=C(N)Nc1ccc(C(=O)Oc2ccc(SCCCN3C(=O)CCC3=O)cc2)cc1 [D, 4-(3-succinimidopropylthio)phenyl 4-guanidinobenzoate methanesulfonate]",59 nM,1300 nM,420 nM
"CC1(C)OC(=O)N(CCSc2ccc(OC(=O)c3ccc(NC(=N)N)cc3)cc2)C1=O [I, 4-[2-(5,5-dimethyl-2,4-dioxooxazolidin-3-yl)ethylthio]phenyl 4-guanidinobenzoate methanesulfonate]",55 nM,830 nM,320 nM
"N=C(N)Nc1ccc(C(=O)Oc2ccc(SCCN3C(=O)[C@H]4CCCC[C@H]4C3=O)cc2)cc1 [G, 4-[2-(cis-1,2-cyclohexanedicarboxyimido)-ethylthio]phenyl 4-guanidinobenzoate methanesulfonate]",62 nM,1000 nM,160 nM
"N=C(N)Nc1ccc(C(=O)Oc2ccc(SCCCCCN3C(=O)CCC3=O)cc2)cc1 [F, 4-(5-succinimidopentylthio)phenyl 4-guanidinobenzoate methanesulfonate]",34 nM,640 nM,270 nM
"CCOCCSc1ccc(OC(=O)c2ccc(NC(=N)N)cc2)cc1 [C, 4-(2-ethoxyethylthio)phenyl 4-guanidinobenzoate methanesulfonate]",45 nM,2200 nM,350 nM
"N=C(N)Nc1ccc(C(=O)Oc2ccc(SCCN3C(=O)CCC3=O)cc2)cc1 [B, 4-(2-succinimidoethylthio)phenyl 4-guanidinobenzoate methanesulfonate]",47 nM,950 nM,530 nM
"N=C(N)Nc1ccc(C(=O)Oc2ccc(SCCO)cc2)cc1 [A, 4-(2-hydroxyethylthio)phenyl 4-guanidinobenzoate methanesulfonate]",43 nM,1300 nM,250 nM
